This note sets out measurements from US12084472B2 (Ardelyx, Inc., priority 2015, dated 2024).

Each structure is given as a SMILES string. Some results are limits rather than exact numbers.

The target in this experiment is T1, human TGR5 (Homo sapiens, UniProt Q8TDU6).
T1 construct: expressed in transfected cells; host or cells: HEK293
T1 sequence (Q8TDU6 1-330): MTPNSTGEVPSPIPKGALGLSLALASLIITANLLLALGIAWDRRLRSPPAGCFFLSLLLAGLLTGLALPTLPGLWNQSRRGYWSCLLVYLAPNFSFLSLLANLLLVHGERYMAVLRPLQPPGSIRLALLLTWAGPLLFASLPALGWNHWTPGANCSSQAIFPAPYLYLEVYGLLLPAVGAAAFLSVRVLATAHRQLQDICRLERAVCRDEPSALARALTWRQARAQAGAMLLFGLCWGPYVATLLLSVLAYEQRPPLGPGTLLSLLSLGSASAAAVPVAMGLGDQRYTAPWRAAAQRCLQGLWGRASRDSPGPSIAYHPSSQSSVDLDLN
Put plainly: Cell-based TGR5 assay (cAMP generation, HTRF). The note with it: HEK293 cells stably transfected with human TGR5; cAMP by HTRF; 30 minutes at 37° C.; read-out: pEC50 Human TGR5 (converted). Summed up:
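First, compounds in 3-fold serial dilution were placed in HBSS with 10 mM HEPES pH 7.4 and 0.5 mM IBMX. Next, human TGR5-expressing HEK293 cells were added and incubated 30 min at 37° C. Finally, cAMP was detected by HTRF and pEC50 derived by logistic fitting.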
For `COc1ccccc1-c1ccncc1C1(NCc2cc(Cl)c(CCCCC(=O)N(C)C[C@H](O)[C@@H](O)[C@H](O)[C@H](O)CO)cc2Cl)CC1` [Compound I-134, 5-{2,5-dichloro-4-[({1-[4-(2-methoxyphenyl)pyridin-3-yl]cyclopropyl}amino)methyl]phenyl}-N-methyl-N-[(2S,3R,4R,5R)-2,3,4,5,6-pentahydroxyhexyl]pentanamide], the EC50 is 126 to 1000 nM.

Consider `O=C(CCCCc1cc(Cl)c(COC2(c3cnccc3-c3ccccc3OC3CC3)CC2)cc1Cl)NC[C@H](O)[C@@H](O)[C@H](O)[C@H](O)CO` [Compound I-135, 5-[2,5-dichloro-4-({1-[4-(2-cyclopropoxyphenyl)pyridin-3-yl]cyclopropoxy}methyl)phenyl]-N-[(2S,3R,4R,5R)-2,3,4,5,6-pentahydroxyhexyl]pentanamide], for which the EC50 was less than 100 nM.

As for `CN(C[C@H](O)[C@@H](O)[C@H](O)[C@H](O)CO)C(=O)CCCCc1cc(Cl)c(COC2(c3cnccc3-c3ccccc3OC3CC3)CC2)cc1Cl` [Compound I-136, 5-[2,5-dichloro-4-({1-[4-(2-cyclopropoxyphenyl)pyridin-3-yl]cyclopropoxy}methyl)phenyl]-N-methyl-N-[(2S,3R,4R,5R)-2,3,4,5,6-pentahydroxyhexyl]pentanamide], the EC50 was less than 100 nM.

On to `CN(C[C@H](O)[C@@H](O)[C@H](O)[C@H](O)CO)C(=O)CCCCc1cc(Cl)c(CNC2(c3cnccc3-c3ccccc3OC3CC3)CC2)cc1Cl` [Compound I-137, 5-{2,5-dichloro-4-[({1-[4-(2-cyclopropoxyphenyl)pyridin-3-yl]cyclopropyl}amino)methyl]phenyl}-N-methyl-N-[(2S,3R,4R,5R)-2,3,4,5,6-pentahydroxyhexyl]pentanamide], for which the EC50 is less than 100 nM.

`O=C(NCCCCc1cc(Cl)c(CNC2(c3cnccc3-c3ccccc3OC3CC3)CC2)cc1Cl)NC[C@H](O)[C@@H](O)[C@H](O)[C@H](O)CO` [Compound I-138, 1-(4-{2,5-dichloro-4-[({1-[4-(2-cyclopropoxyphenyl)pyridin-3-yl]cyclopropyl}amino)methyl]phenyl}butyl)-3-[(2S,3R,4R,5R)-2,3,4,5,6-pentahydroxyhexyl]urea]: the EC50 was less than 100 nM.

As for `CC(CCCc1cc(Cl)c(COC2(c3cnccc3-c3ccccc3OC3CC3)CC2)cc1Cl)C(=O)NC[C@H](O)[C@@H](O)[C@H](O)[C@H](O)CO` (stereo partly drawn) [Compound I-139, 5-[2,5-dichloro-4-({1-[4-(2-cyclopropoxyphenyl)pyridin-3-yl]cyclopropoxy}methyl)phenyl]-2-methyl-N-[(2S,3R,4R,5R)-2,3,4,5,6-pentahydroxyhexyl]pentanamide], the EC50 was less than 100 nM.

For the molecule `CC(CCCc1cc(Cl)c(COC2(c3cnccc3-c3ccccc3OC3CC3)CC2)cc1Cl)C(=O)N(C)C[C@H](O)[C@@H](O)[C@H](O)[C@H](O)CO` (stereo partly drawn) [Compound I-140, 5-[2,5-dichloro-4-({1-[4-(2-cyclopropoxyphenyl)pyridin-3-yl]cyclopropoxy}methyl)phenyl]-N,2-dimethyl-N-[(2S,3R,4R,5R)-2,3,4,5,6-pentahydroxyhexyl]pentanamide], the EC50 is less than 100 nM.

As to `O=C(NCCCCc1cc(Cl)c(COC2(c3cnccc3-c3ccccc3OC3CC3)CC2)cc1Cl)NC[C@H](O)[C@@H](O)[C@H](O)[C@H](O)CO` [Compound I-141, 1-{4-[2,5-dichloro-4-({1-[4-(2-cyclopropoxyphenyl)pyridin-3-yl]cyclopropoxy}methyl)phenyl]butyl}-3-[(2S,3R,4R,5R)-2,3,4,5,6-pentahydroxyhexyl]urea], the EC50 was less than 100 nM.

As for `Cc1cc(CNC2(c3cnccc3-c3ccccc3OC3CC3)CC2)c(Cl)cc1CCCCC(=O)NC[C@H](O)[C@@H](O)[C@H](O)[C@H](O)CO` [Compound I-142, 5-{5-chloro-4-[({1-[4-(2-cyclopropoxyphenyl)pyridin-3-yl]cyclopropyl}amino)methyl]-2-methylphenyl}-N-[(2S,3R,4R,5R)-2,3,4,5,6-pentahydroxyhexyl]pentanamide], the EC50 is less than 100 nM.

For `Cc1cc(CNC2(c3cnccc3-c3ccccc3OC3CC3)CC2)c(Cl)cc1CCCCC(=O)N(C)C[C@H](O)[C@@H](O)[C@H](O)[C@H](O)CO` [Compound I-143, 5-{5-chloro-4-[({1-[4-(2-cyclopropoxyphenyl)pyridin-3-yl]cyclopropyl}amino)methyl]-2-methylphenyl}-N-methyl-N-[(2S,3R,4R,5R)-2,3,4,5,6-pentahydroxyhexyl]pentanamide], the EC50 is less than 100 nM.

With `CC(C)(CCCc1cc(Cl)c(COC2(c3cnccc3-c3ccccc3OC3CC3)CC2)cc1Cl)C(=O)NC[C@H](O)[C@@H](O)[C@H](O)[C@H](O)CO` [Compound I-144, 5-[2,5-dichloro-4-({1-[4-(2-cyclopropoxyphenyl)pyridin-3-yl]cyclopropoxy}methyl)phenyl]-2,2-dimethyl-N-[(2S,3R,4R,5R)-2,3,4,5,6-pentahydroxyhexyl]pentanamide], the EC50 was 126 to 1000 nM.

For `Cc1cc(COC2(c3cnccc3-c3ccccc3OC3CC3)CC2)c(Cl)cc1CCCCC(=O)NC[C@H](O)[C@@H](O)[C@H](O)[C@H](O)CO` [Compound I-145, 5-[5-chloro-4-({1-[4-(2-cyclopropoxyphenyl)pyridin-3-yl]cyclopropoxy}methyl)-2-methylphenyl]-N-[(2S,3R,4R,5R)-2,3,4,5,6-pentahydroxyhexyl]pentanamide], the EC50 is less than 100 nM.

In the case of `Cc1cc(COC2(c3cnccc3-c3ccccc3OC3CC3)CC2)c(Cl)cc1CCCCC(=O)N(C)C[C@H](O)[C@@H](O)[C@H](O)[C@H](O)CO` [Compound I-146, 5-[5-chloro-4-({1-[4-(2-cyclopropoxyphenyl)pyridin-3-yl]cyclopropoxy}methyl)-2-methylphenyl]-N-methyl-N-[(2S,3R,4R,5R)-2,3,4,5,6-pentahydroxyhexyl]pentanamide], the EC50 was less than 100 nM.

Turning to `Cc1cc(CNC2(c3cnccc3-c3ccccc3OC3CC3)CC2)c(C)cc1CCCCC(=O)NC[C@H](O)[C@@H](O)[C@H](O)[C@H](O)CO` [Compound I-148, 5-{4-[({1-[4-(2-cyclopropoxyphenyl)pyridin-3-yl]cyclopropyl}amino)methyl]-2,5-dimethylphenyl}-N-[(2S,3R,4R,5R)-2,3,4,5,6-pentahydroxyhexyl]pentanamide], the EC50 was 126 to 1000 nM.

As for `Cc1cc(CNC2(c3cnccc3-c3ccccc3OC3CC3)CC2)c(C)cc1CCCCC(=O)N(C)C[C@H](O)[C@@H](O)[C@H](O)[C@H](O)CO` [Compound I-149, 5-{4-[({1-[4-(2-cyclopropoxyphenyl)pyridin-3-yl]cyclopropyl}amino)methyl]-2,5-dimethylphenyl}-N-methyl-N-[(2S,3R,4R,5R)-2,3,4,5,6-pentahydroxyhexyl]pentanamide], the EC50 is 126 to 1000 nM.

For `CC(OCCc1cc(Cl)c(COC2(c3cnccc3-c3ccccc3OC3CC3)CC2)cc1Cl)C(=O)NC[C@H](O)[C@@H](O)[C@H](O)[C@H](O)CO` (stereo partly drawn) [Compound I-152, 2-{2-[2,5-dichloro-4-({1-[4-(2-cyclopropoxyphenyl)pyridin-3-yl]cyclopropoxy}methyl)phenyl]ethoxy}-N-[(2S,3R,4R,5R)-2,3,4,5,6-pentahydroxyhexyl]propanamide], the EC50 was 126 to 1000 nM.

As to `O=C(CCCCc1cc(Cl)c(COC2(c3cnccc3-c3ccccc3OC3CC3)CC2)cc1Cl)N[C@@H](C(=O)O)[C@@H](O)[C@H](O)[C@H](O)CO` [Compound I-153], the EC50 is less than 100 nM.

As for `O=C(CCCCc1cc(Cl)c(COC2(c3cnccc3-c3ccccc3OC3CC3)CC2)cc1Cl)N[C@@H]1[C@@H](O)[C@H](O)[C@@H](CO)O[C@H]1O` [Compound I-154, 5-[2,5-dichloro-4-({1-[4-(2-cyclopropoxyphenyl)pyridin-3-yl]cyclopropoxy}methyl)phenyl]-N-[(2R,3R,4R,5S,6R)-2,4,5-trihydroxy-6-(hydroxymethyl)oxan-3-yl]pentanamide], the EC50 is less than 100 nM.

In the case of `CC(OCCc1cc(Cl)c(COC2(c3cnccc3-c3ccccc3OC3CC3)CC2)cc1Cl)C(=O)N(C)C[C@H](O)[C@@H](O)[C@H](O)[C@H](O)CO` (stereo partly drawn) [Compound I-155, 2-{2-[2,5-dichloro-4-({1-[4-(2-cyclopropoxyphenyl)pyridin-3-yl]cyclopropoxy}methyl)phenyl]ethoxy}-N-methyl-N-[(2S,3R,4R,5R)-2,3,4,5,6-pentahydroxyhexyl]propanamide], the EC50 was less than 100 nM.

Consider `O=C(CCCCc1cc(Cl)c(COC2(c3cnccc3-c3ccccc3OC3CC3)CC2)cc1Cl)N[C@@H](CO)[C@@H](O)[C@H](O)[C@H](O)CO` [Compound I-156, 5-[2,5-dichloro-4-({1-[4-(2-cyclopropoxyphenyl)pyridin-3-yl]cyclopropoxy}methyl)phenyl]-N-[(2S,3R,4S,5R)-1,3,4,5,6-pentahydroxyhexan-2-yl]pentanamide], for which the EC50 was less than 100 nM.

Regarding `O=C(O)CCCCc1cc(Cl)c(COC2(c3cnccc3-c3ccccc3OC3CC3)CC2)cc1Cl` [Compound I-157, 5-[2,5-dichloro-4-({1-[4-(2-cyclopropoxyphenyl)pyridin-3-yl]cyclopropoxy}methyl)phenyl]pentanoic acid], the EC50 was less than 100 nM.

On to `CC(CCCC(=O)NC[C@H](O)[C@@H](O)[C@H](O)[C@H](O)CO)c1cc(Cl)c(COC2(c3cnccc3-c3ccccc3OC3CC3)CC2)cc1Cl` (stereo partly drawn) [Compound I-161, 5-[2,5-dichloro-4-({1-[4-(2-cyclopropoxyphenyl)pyridin-3-yl]cyclopropoxy}methyl)phenyl]-N-[(2S,3R,4R,5R)-2,3,4,5,6-pentahydroxyhexyl]hexanamide], for which the EC50 was less than 100 nM.
